Test results: ChEMBL document CHEMBL1201862, “PubChem BioAssay data set” (2004)
The source made the active and inactive calls.

How the values were obtained:
[1] = test system: H9c2; test: cells; format: functional, cell-based; settings: Rattus norvegicus, H9c2, Myocardium;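 note: confirmatory concentration-response retest of ultra-high-throughput screening hits for modulation of myocardial damage; cell death induced by hydrogen peroxide oxidative stress; compound pretreatment for 60 min then peroxide exposure for 2 h; potency is for protecting the cells against peroxide damage rather than for killing them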
[2] = HEp-2 cell cytotoxicity, dose response, cytotoxicity control for RSV inhibitor project, HTS (AID 2410); format: functional; settings: human respiratory syncytial virus
[3] = molecular target: T1, Corticotropin-releasing factor receptor 2/Corticotropin-releasing factor-binding protein (Homo sapiens, UniProt P24387+Q13324); test: activators of CRF receptor 2 with binding protein – uHTS hits, confirmation (AID 602473); format: functional; settings: read-out: EC50_Mean
T1 sequence (Q13324 whole entry): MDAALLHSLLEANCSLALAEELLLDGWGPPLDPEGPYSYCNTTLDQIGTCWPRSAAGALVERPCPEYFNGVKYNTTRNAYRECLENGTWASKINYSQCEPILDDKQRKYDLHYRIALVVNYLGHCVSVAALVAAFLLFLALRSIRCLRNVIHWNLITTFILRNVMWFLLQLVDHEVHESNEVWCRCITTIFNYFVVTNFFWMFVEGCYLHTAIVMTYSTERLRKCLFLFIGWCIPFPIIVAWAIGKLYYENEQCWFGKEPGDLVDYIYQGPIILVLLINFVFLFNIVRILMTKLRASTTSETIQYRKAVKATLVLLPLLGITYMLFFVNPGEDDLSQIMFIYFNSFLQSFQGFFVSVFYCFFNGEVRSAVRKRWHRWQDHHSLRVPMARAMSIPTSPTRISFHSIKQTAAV
T1 sequence (P24387 whole entry): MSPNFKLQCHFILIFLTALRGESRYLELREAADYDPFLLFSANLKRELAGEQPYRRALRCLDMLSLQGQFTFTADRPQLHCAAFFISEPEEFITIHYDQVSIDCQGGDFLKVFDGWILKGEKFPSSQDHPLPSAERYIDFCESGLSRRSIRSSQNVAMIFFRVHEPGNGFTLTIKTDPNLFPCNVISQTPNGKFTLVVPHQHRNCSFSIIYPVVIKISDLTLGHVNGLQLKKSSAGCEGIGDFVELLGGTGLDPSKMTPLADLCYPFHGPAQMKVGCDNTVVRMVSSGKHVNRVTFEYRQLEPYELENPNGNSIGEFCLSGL

[4] = molecular target: T1, Corticotropin-releasing factor receptor 2/Corticotropin-releasing factor-binding protein; test: Dose Response confirmation of uHTS hits for small molecule antagonists of the CRF-binding protein and CRF-R2 receptor complex.; format: functional; settings: read-out: IC50_Mean
[5] = molecular target: T2, Streptokinase A (Streptococcus pyogenes serotype M1, UniProt P10520); test: S. pyogenes streptokinase expression inhibitors, potency, dose response, plasminogen activation absorbance, OD405 (AID 1914); format: functional, Streptococcus pyogenes M1 GAS;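 note: secreted streptokinase activity via plasminogen activation per viability signal from cell pellet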
T2 sequence (P10520 whole entry): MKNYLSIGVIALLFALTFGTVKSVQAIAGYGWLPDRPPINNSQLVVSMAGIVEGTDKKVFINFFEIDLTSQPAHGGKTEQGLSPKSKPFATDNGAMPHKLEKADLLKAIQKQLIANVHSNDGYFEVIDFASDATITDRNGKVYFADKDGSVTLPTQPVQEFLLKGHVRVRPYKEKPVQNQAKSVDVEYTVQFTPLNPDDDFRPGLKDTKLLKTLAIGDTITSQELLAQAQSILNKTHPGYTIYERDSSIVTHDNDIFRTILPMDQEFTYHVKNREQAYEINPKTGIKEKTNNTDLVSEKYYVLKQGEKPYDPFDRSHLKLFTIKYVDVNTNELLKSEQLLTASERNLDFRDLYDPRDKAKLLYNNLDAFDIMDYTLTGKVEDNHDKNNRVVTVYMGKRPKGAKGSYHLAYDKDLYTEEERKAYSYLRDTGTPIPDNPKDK

[6] = test system: Streptococcus sp. 'group A'; test: growth inhibition of control SK(-) GAS strain, dose response, counter-screen for streptokinase expression inhibitor project, luminescence, kanamycin, BacTiterGlo, confirmation (AID 1900); format: functional, organism-based
[7] = test system: Streptococcus; test: Group A Streptococcus viability loss, dose response, counter-screen for streptokinase expression inhibitor project, luminescence, BacTiterGlo (AID 1915); format: functional, organism-based;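 note: potency for reduction of bacterial viability or growth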
[8] = molecular target: T3, Protein RecA (Mycobacterium tuberculosis, UniProt P9WHJ3); test: Fluorescence Cell-Free Homogeneous Dose Retest to Identify Inhibitors of RecA-Intein Splicing Activity. [Related pubchem assays (depositor defined):AID2097, AID2223, AID489010, AID492950]; format: functional
T3 sequence (P9WHJ3 whole entry): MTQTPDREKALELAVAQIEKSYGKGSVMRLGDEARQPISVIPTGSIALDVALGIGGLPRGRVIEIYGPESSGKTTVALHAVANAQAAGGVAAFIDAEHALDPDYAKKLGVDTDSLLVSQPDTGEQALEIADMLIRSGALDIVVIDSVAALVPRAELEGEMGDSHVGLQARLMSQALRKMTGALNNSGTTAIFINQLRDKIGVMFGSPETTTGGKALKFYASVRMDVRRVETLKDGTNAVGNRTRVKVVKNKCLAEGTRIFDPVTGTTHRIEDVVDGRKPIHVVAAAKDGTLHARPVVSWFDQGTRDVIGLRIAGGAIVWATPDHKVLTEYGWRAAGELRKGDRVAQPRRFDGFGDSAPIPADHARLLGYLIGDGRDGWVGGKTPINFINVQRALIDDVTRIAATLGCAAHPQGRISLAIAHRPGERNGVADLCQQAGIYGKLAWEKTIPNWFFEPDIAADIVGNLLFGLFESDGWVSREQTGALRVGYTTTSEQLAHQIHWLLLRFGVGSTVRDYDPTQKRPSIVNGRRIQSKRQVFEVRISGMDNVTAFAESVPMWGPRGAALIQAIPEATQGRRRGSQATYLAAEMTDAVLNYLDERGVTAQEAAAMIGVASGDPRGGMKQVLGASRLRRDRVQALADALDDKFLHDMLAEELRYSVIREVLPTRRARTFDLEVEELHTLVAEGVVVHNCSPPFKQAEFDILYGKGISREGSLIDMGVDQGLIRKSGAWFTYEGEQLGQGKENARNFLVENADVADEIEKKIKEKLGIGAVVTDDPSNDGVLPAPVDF

[9] = molecular target: T4, Fatty acid synthase (Homo sapiens, UniProt P49327); test: FAS thioesterase domain inhibitors, dose response, biochemical, endpoint fluorescence intensity, uHTS hits (AID 624327); format: functional;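 note: fluorescence from hydrolysis of an O-methyl fluorescein acyl ester substrate by the enzyme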
[10] = molecular target: T4, Fatty acid synthase; test: FAS thioesterase domain inhibitors, dose response, biochemical, kinetic fluorescence intensity (AID 624326); format: functional;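 note: rate of fluorescence rise from hydrolysis of a fluorogenic O-methyl fluorescein ester substrate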

T4 sequence (P49327 whole entry, the tested form may be a part): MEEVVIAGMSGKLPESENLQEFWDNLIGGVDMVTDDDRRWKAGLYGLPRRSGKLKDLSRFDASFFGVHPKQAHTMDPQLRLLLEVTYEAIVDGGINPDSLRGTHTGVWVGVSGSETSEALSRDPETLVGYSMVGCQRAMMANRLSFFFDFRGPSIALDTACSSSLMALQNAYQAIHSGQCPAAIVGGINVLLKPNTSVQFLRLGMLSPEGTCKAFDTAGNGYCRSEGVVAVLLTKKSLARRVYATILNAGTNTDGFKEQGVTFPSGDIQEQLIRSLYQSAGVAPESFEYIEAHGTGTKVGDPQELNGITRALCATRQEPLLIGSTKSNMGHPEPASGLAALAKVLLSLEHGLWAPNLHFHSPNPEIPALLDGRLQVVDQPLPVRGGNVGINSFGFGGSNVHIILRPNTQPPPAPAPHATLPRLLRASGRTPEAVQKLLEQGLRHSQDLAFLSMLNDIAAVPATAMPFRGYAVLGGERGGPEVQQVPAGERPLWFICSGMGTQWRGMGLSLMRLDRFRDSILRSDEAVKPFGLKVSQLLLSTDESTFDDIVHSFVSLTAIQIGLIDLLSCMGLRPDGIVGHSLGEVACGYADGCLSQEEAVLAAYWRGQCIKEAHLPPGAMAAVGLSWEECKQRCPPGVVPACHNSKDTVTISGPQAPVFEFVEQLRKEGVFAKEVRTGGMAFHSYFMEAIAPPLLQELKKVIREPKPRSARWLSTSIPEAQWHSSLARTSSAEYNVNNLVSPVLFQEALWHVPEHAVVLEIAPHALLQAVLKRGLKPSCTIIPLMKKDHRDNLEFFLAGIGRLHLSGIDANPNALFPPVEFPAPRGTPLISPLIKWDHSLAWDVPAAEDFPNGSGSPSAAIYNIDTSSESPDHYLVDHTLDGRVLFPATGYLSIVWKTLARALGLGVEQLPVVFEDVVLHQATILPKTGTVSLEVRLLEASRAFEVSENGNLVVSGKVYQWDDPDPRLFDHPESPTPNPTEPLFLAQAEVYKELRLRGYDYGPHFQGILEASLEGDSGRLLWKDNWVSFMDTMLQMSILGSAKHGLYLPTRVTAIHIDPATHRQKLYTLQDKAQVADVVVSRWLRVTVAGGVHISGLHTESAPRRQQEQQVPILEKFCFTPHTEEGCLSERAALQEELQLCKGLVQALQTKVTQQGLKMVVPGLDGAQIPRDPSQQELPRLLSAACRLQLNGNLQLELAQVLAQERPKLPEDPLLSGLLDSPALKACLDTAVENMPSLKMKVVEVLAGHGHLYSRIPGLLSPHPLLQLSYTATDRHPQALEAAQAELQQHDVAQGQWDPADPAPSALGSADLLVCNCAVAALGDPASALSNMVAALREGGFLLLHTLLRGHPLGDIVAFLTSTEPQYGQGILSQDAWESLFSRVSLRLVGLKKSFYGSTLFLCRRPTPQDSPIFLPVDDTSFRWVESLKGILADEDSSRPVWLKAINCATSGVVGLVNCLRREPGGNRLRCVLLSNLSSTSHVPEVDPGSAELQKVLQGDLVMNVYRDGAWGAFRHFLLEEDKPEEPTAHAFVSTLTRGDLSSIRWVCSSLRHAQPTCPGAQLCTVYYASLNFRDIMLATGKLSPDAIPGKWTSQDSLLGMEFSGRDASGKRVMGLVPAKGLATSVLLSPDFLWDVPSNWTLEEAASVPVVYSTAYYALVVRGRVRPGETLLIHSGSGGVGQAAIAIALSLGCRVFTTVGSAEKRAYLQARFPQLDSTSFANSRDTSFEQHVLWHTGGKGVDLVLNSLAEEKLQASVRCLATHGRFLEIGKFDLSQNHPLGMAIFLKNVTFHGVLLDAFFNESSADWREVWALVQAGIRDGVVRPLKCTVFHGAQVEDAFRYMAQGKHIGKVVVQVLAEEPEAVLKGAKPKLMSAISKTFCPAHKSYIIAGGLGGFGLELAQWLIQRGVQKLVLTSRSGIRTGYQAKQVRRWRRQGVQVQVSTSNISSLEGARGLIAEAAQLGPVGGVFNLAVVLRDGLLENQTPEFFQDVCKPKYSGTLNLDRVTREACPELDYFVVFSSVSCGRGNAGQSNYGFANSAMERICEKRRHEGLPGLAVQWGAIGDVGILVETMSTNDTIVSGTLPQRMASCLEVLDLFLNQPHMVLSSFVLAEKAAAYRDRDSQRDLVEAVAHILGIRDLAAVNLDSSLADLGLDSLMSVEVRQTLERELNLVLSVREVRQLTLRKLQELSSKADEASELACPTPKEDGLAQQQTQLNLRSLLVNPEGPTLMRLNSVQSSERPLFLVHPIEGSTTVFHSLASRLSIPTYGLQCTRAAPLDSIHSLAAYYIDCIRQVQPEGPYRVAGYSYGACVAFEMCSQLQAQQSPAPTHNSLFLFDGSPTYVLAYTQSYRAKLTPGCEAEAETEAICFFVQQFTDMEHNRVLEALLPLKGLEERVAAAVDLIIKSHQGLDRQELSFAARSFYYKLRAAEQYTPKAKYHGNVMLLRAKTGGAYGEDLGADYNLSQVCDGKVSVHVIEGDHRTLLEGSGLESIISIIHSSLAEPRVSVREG

## CCOC(=O)N1CCC(n2c(SCC(=O)N3CCC(C)CC3)nc3ccccc3c2=O)CC1
[1]
  IC50: > 79 µM (inactive)

## O=C(/C=C/c1cccs1)c1cc(Br)ccc1OC(=O)N1CCOCC1
[2]
  CC50: 18.7 µM (active)

## CCc1ccc(/C=C2\SC(N3CCCC3)=NC2=O)cc1
[2]
  CC50: > 50 µM (active)

## COc1cc(OC)cc(C(=O)NC2CC3CCC(C2)N3Cc2ccco2)c1 (stereo not given)
[3]
  EC50: > 53 µM (inactive)
[4]
  IC50: > 47.1 µM (inactive)

## Cc1[nH]c2ccccc2c1N=Nc1ccc(F)cc1
[2]
  CC50: 17.2 µM (active)

## C[C@@H](C(=O)Nc1ccc2ccccc2c1)[C@H]1C[C@]1(C)[C@H](NS(=O)(=O)c1ccccc1)c1ccccc1
[2]
  CC50: 36.4 µM (active)

## COc1cc(CCNc2ccc3nnc(-c4ccccc4)n3n2)cc(OC)c1OC
[1]
  IC50: > 79 µM (inactive)

## COc1ccc(/C=C/C(=O)c2ccccc2O)cc1CN1CCOCC1
[1]
  IC50: > 79 µM (inactive)

## Cc1ccc2nc(-c3ccccc3)cc(C(=O)NNC(=O)c3csc(N4CCOCC4)n3)c2c1
[1]
  IC50: > 79 µM (inactive)

## CCCC(=O)Nc1sc2c(c1C(=O)OC)C(C(=O)OC)CC2 (stereo not given)
[2]
  CC50: 31.6 µM (active)

## CCC(=O)Nc1ccc(Nc2nc(C)c([N+](=O)[O-])c(Nc3ccc(NC(=O)CC)cc3)n2)cc1
[5]
  EC50: > 150 µM (not active)
[6]
  EC50: 0.487 µM (active)
[7]
  EC50: 49.3 µM (active)

## C=CCCC(=O)N1CCC(n2nccc2NC(=O)c2ccc(OC)cc2)CC1
[3]
  EC50: > 53 µM (inactive)
[4]
  IC50: > 47.1 µM (inactive)

## CC(=O)c1c(C)n(-c2cccc(Cl)c2)c2ccc(O)cc12
[1]
  IC50: 10.4 µM (active)

## C=CCN1C(=O)NC(=O)/C(=C(/CC)NCc2ccc3c(c2)OCO3)C1=O
[3]
  EC50: > 53 µM (inactive)
[4]
  IC50: > 47.1 µM (inactive)

## COc1ccc(C(C(=O)NCc2ccccc2)N(Cc2ccco2)C(=O)c2snc(C(N)=O)c2N)cc1 (stereo not given)
[1]
  IC50: > 79 µM (inactive)

## COc1ccc(/C=N/NC(=O)c2cc(C(C)(C)C)[nH]n2)cc1COc1ccc(F)cc1F
[5]
  EC50: > 150 µM (not active)
[6]
  EC50: 6.95 µM (active)
[7]
  EC50: 11.7 µM (active)

## CCOC(=O)c1ccc(NC(=O)CC2SC(N/N=C/c3c[nH]c4ccccc34)=NC2=O)cc1 (stereo not given)
[5]
  EC50: > 150 µM (not active)
[6]
  EC50: 3.35 µM (active)
[7]
  EC50: > 150 µM (not active)

## Cc1[nH]c2ccccc2c1/C=N/NC(=O)c1cc(-c2cccs2)[nH]n1
[1]
  IC50: > 79 µM (inactive)

## Cc1ccccc1/N=C1\C(Cl)=C(O)OC1OC(=O)c1ccco1 (stereo not given)
[8]
  EC50: 11.4 µM (active)
[9]
  IC50: 3.24 µM (active)
[10]
  IC50: 4.35 µM (active)
